The results in this text go back to patent US8426446B2, “Acrylamide derivative and use thereof in manufacture of medicament” (Beijing Shiqiao Biopharm Co. Ltd., priority 2009, dated 2013).

Bounds are passed on as bounds.

For this experiment, the system named is Human Leukemia Cell K562. The experiment is described as follows: Inhibitory effects on Human Leukemia Cell K562 (MTT). Type of experiment: cell-based. The settings on record: Homo sapiens, K562 cells, 72 h~120 h. How it is done:
K562 cells were seeded in RPMI1640 cell culture solution containing 10% of fetal calf serum (supplemented with 100 ku/L of penicillin and streptomycin each). Culture dish was placed in the cell incubator under 5% of CO2 at 37° C. The culture solution was centrifuged and replaced every 2-3 days to passage and collect cells.
Cells in logarithmic growth phase were formulated into the cell suspensions at the required concentration with RPMI1640 culture solution containing 10% fetal calf serum. The resulting mixture was added to 96-wells cell culture plate at 3,000 cells per well (100 μl); after 12 hours of culture, to each well was added different amount of stock solution. The final concentrations of the samples are 100 μg/ml, 10 μg/ml, 1 μg/ml, […], and 0.01 μg/ml respectively in triplicate. After 72 h˜120 h, supernatant was discarded. To each well was added […] fresh serum-free culture solution containing 5 mg/ml blue tetrazolium (MTT). After culturing for 4 hours at 37° C., the mixture was centrifuged at 3000 rpm/min and the supernatant was discarded. Formazan was dissolved with 200 μl DMSO. After vortex oscillation for 1 min, absorbance value (OD-value) was measured on microplate reader at the wavelength of 570/450 nm. Inhibition ratio=(control group OD-value−drug group OD-value)/control group OD-value×100%.
What is called IC50 is the concentration needed to halve the response being measured. Compound `Cc1ccc(C(=O)Nc2ccc(F)c(Cl)c2)cc1NC(=O)/C=C/c1cncnc1` [compound 81, N-(3-chloro-4-fluorophenyl)-4-methyl-3-(3-(pyrimidin-5-yl)acrylamido)benzamide] registered an IC50 below 20 nM. `Cc1ccc(C(=O)Nc2c(C)cccc2Cl)cc1NC(=O)/C=C/c1cncnc1` [compound 82, N-(2-chloro-6-methylphenyl)-4-methyl-3-(3-(pyrimidin-5-yl)acrylamido)benzamide] returned a concentration for half-maximal inhibition (IC50) below 20 nM. On to `Cc1cn(-c2cc(NC(=O)c3ccc(C)c(NC(=O)/C=C/c4cncnc4)c3)cc(C(F)(F)F)c2)cn1` [compound 90, N-(3-(4-methyl-1H-imidazol-1-yl)-5-(trifluoromethyl)phenyl)-4-methyl-3-(3-(pyrimidin-5-yl)acrylamido)benzamide], for which the concentration for half-maximal inhibition (IC50) was below 1 nM. As for `Cc1ccc(NC(=O)Nc2ccc(F)c(Cl)c2)cc1NC(=O)/C=C/c1cccnc1` [compound 102, N-(5-(3-(3-chloro-4-fluorophenyl)ureido)-2-methylphenyl)-3-(pyridin-3-yl)acrylamide], the 50% inhibitory concentration (IC50) was 10 to 20 nM.
